Laboratory results taken from PubChem BioAssay AID504532 (Sanford-Burnham Center for Chemical Genomics, 2011).
Active and inactive are the calls of the source.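 Rule for the calls: active = mean EC50 below 10 µM; inactive = the rest.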

What follows are molecules tested against Type-1 angiotensin II receptor (Homo sapiens) (UniProt P30556) (assay: AGTR1 beta-arrestin recruitment agonism – cell-based, CHO-K1 AGTR1, luminescence, set 5, selectivity assay for APJ receptor agonist project, SAR follow-up (AID 504532)). Conditions: CHO-K1 AGTR1 beta-arrestin PathHunter, 90 min.
Chain of Type-1 angiotensin II receptor (Homo sapiens) (P30556 whole entry, looked up): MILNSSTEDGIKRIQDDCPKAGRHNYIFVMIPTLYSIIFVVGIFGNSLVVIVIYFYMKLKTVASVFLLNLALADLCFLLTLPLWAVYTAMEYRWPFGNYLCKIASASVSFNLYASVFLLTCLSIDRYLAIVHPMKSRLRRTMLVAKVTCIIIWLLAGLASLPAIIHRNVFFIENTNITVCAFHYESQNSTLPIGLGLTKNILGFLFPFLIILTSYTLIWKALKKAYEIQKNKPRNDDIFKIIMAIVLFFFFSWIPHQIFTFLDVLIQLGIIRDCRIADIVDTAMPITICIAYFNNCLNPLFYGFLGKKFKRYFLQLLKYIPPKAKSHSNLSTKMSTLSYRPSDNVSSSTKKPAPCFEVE

SMILES	EC50
CC(C)C1=CC(=NOS(=O)(=O)c2ccccc2)C=CC1=O	> 79 µM (inactive)
CC1=CC(=O)C(C2CCCCC2)=C/C1=N/OS(=O)(=O)c1cccc(Br)c1	> 79 µM (inactive)
CC1=CC(=O)C(C2CCCCC2)=C/C1=N\OS(=O)(=O)c1cn(C)cn1	> 79 µM (inactive)
CC1=CC(=O)C(C(C)C)=C/C1=N\OS(=O)(=O)C1CCCCC1	> 79 µM (inactive)
N#Cc1ccc(S(=O)(=O)ON=C2C=CC(=O)C(c3ccccc3)=C2)cc1	> 79 µM (inactive)
CC1=CC(=O)C(C2CCCCC2)=C/C1=N\OS(=O)(=O)c1ccccc1Cl	> 79 µM (inactive)
Cc1cc(N=O)c(C(C)C)cc1O	> 79 µM (inactive)
CC1=CC(=O)C(C(C)C)=C/C1=N\OS(=O)(=O)c1cn(C)cn1	> 79 µM (inactive)
Cc1cc(O)c(C(C)(C)C)cc1N=O	> 79 µM (inactive)
CC1=CC(=O)C(C(C)(C)C)=C/C1=N\OS(=O)(=O)C1CCCCC1	> 79 µM (inactive)
CC1=CC(=O)C(C2CCCCC2)=C/C1=N\OS(=O)(=O)c1c(Cl)cccc1Cl	> 79 µM (inactive)
O=C1C=CC(=NOS(=O)(=O)c2ccccc2)C=C1c1ccccc1	> 79 µM (inactive)
CC1=CC(=O)C(C(C)C)=C/C1=N\OS(=O)(=O)c1c(Cl)cccc1Cl	> 79 µM (inactive)

The next lines start with the values.

EC50	SMILES
> 79 µM (inactive)	CC1=CC(=O)C(C(C)(C)C)=C/C1=N\OS(=O)(=O)c1ccccc1Cl
> 79 µM (inactive)	CC1=CC(=O)C(C2CCCCC2)=C/C1=N\OS(=O)(=O)c1cccc(Cl)c1
> 79 µM (inactive)	CC1=CC(=O)C(C(C)C)=C/C1=N\OS(=O)(=O)c1ccccc1Cl
> 79 µM (inactive)	CC1=CC(=O)C(C(C)(C)C)=C/C1=N/OS(=O)(=O)c1cccc(Br)c1
> 79 µM (inactive)	CC1=CC(=O)C(C(C)C)=C/C1=N/OS(=O)(=O)c1cccc(C)c1
> 79 µM (inactive)	CC1=CC(=O)C(C(C)C)=C/C1=N\OS(=O)(=O)c1cccc(Cl)c1
> 79 µM (inactive)	COc1cccc(S(=O)(=O)O/N=C2\C=C(C(C)C)C(=O)C=C2C)c1
> 79 µM (inactive)	CC1=CC(=O)C(C2CCCCC2)=C/C1=N/OS(=O)(=O)c1cccc(C#N)c1
> 79 µM (inactive)	CC1=CC(=O)C(C(C)(C)C)=C/C1=N\OS(=O)(=O)c1c(Cl)cccc1Cl
> 79 µM (inactive)	CC1=CC(=O)C(C(C)(C)C)=C/C1=N\OS(=O)(=O)c1cn(C)cn1
> 79 µM (inactive)	COc1cccc(S(=O)(=O)O/N=C2\C=C(C3CCCCC3)C(=O)C=C2C)c1
> 79 µM (inactive)	CC1=CC(=O)C(C(C)C)=C/C1=N/OS(=O)(=O)c1cccc(Br)c1
> 79 µM (inactive)	CC1=CC(=O)C(C(C)(C)C)=C/C1=N/OS(=O)(=O)c1cccc(C)c1
> 79 µM (inactive)	CC1=CC(=O)C(C2CCCCC2)=C/C1=N/OS(=O)(=O)c1cccc(C)c1
> 79 µM (inactive)	CC1=CC(=O)C(C(C)(C)C)=C/C1=N\OS(=O)(=O)c1cccc(Cl)c1
> 79 µM (inactive)	CC1=CC(=O)C(C(C)(C)C)=C/C1=N/OS(=O)(=O)c1cccc(C#N)c1
> 79 µM (inactive)	CC1=CC(=O)C(C(C)C)=C/C1=N/OS(=O)(=O)c1cccc(C#N)c1
> 79 µM (inactive)	COc1cccc(S(=O)(=O)O/N=C2\C=C(C(C)(C)C)C(=O)C=C2C)c1
